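48-hour exposure; five concentrations; linearly interpolated endpoints. GI50 = concentration required for 50% inhibition of growth.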 Calls of active or inactive are those of the source. Cut-off read from the data, not from the text of the source: active = GI50 up to about 1.1 µM and inactive = higher. Bounds are passed on as bounds.

Eight compounds from ChEMBL document CHEMBL1201862, “PubChem BioAssay data set” (2004) can be followed below.

Holding throughout (test): DTP human tumour cell line panel, 48 h
Assay [1] has as its system 786-0.
The subject of assay [2] is UO-31.
The subject of assay [3] is NCI/ADR-RES.
For assay [4], the system named is HOP-62.
The test system of assay [5] is NCI-H23.
In assay [6] the test system is UACC-257.
The subject of assay [7] is A498.
Assay [8] relates to CAKI-1.
Assay [9] relates to OVCAR-3.
Assay [10] deals with Hs-578T.
Assay [11] relates to MDA-MB-435.
Assay [12] concerns OVCAR-4.
Assay [13] has as its system SF-268.
The subject of assay [14] is SF-295.
The test system of assay [15] is HCT-15.
Assay [16] concerns EKVX.
Assay [17] relates to LOX IMVI.
Assay [18] concerns TK-10.
In assay [19] the test system is NCI-H522.
For assay [20], the system named is SK-MEL-5.

Turning to `Cc1ccc(N/C(SCc2ccccc2)=C(\C(Cl)=C(Cl)Cl)[N+](=O)[O-])c(C)c1`, the GI50 (in general, the concentration that inhibits growth by half) in assay [1] is 23.6 µM (inactive); in assay [2] it was 20 µM (inactive); in [3], 21.2 µM (inactive); in [4] it was 8.13 µM (inactive); in assay [5], 19.5 µM (inactive); in [6], 43.9 µM (inactive). In addition, the GI50 in assay [7] is 22.2 µM (inactive); in assay [8], 18.6 µM (inactive); in assay [9], 8.26 µM (inactive); in [10], 39.1 µM (inactive); in [11], 7.21 µM (inactive); in [12] it was 10.8 µM (inactive). The GI50 in [13] is 14.3 µM (inactive); in [14], 23.7 µM (inactive); in [15], 17.7 µM; in [16], 33.4 µM (inactive).

As to `O=C1NCc2ccccc2S(=O)(=O)n2cccc21`, the GI50 in assay [17], in assay [1], in assay [2], in [3], in assay [18] and in assay [4] was > 100 µM (inactive) throughout. Moreover, the GI50 is 85.7 µM (inactive) in [19]; > 100 µM (inactive) in assay [5]; > 100 µM (inactive) in assay [6]; > 100 µM (inactive) in assay [8]; > 100 µM (inactive) in assay [9]; > 100 µM (inactive) in assay [10]. The GI50 is > 100 µM (inactive) in assay [11]; > 100 µM (inactive) in assay [12]; > 100 µM (inactive) in assay [13]; > 100 µM (inactive) in [14]; more than 100 µM in assay [15]; > 100 µM (inactive) in assay [20]. Also, the GI50 in [16] was > 100 µM (inactive).

Turning to `O=C1NC(=O)C(CCC(=O)c2cccc3ccccc23)C(=O)N1`, the GI50 in [17], in assay [1], in assay [2], in [3], in [5] and in assay [6] was > 100 µM (inactive) in each case. Besides, the GI50 in assay [7], in assay [8], in assay [9], in assay [10], in [11] and in [12] was > 100 µM (inactive) throughout. For the same compound, the GI50 is > 100 µM (inactive) in assay [13], 60.1 µM (inactive) in [14], more than 100 µM in assay [15] and > 100 µM (inactive) in assay [20].

In the case of `COc1ccc(NC(=O)NNS(=O)(=O)c2ccc(C)cc2)cc1`, the GI50 in assay [1] was 0.792 µM (active); in [2], > 100 µM (inactive); in assay [3], > 100 µM (inactive); in [18] it was > 100 µM (inactive); in assay [4], > 100 µM (inactive); in [19], 45.1 µM (inactive). The GI50 is 52.8 µM (inactive) in assay [5]; > 100 µM (inactive) in assay [6]; > 100 µM (inactive) in assay [7]; > 100 µM (inactive) in assay [8]; > 100 µM (inactive) in [10]; 30.4 µM (inactive) in [11]. The GI50 in assay [12] was 25.1 µM (inactive); in assay [13], > 100 µM (inactive); in assay [14], > 100 µM (inactive); in assay [15], more than 100 µM; in assay [20] it was 74 µM (inactive); in assay [16], > 100 µM (inactive).

For `C=C(C)C1Cc2c(cc3c(c2O)c(=O)c2ccccc2n3C)O1` (centres undefined), the GI50 in [1] is 1.51 µM (inactive); in [2] it was 1.84 µM (inactive); in assay [3] it was 2.3 µM (inactive); in [18] it was 13.9 µM (inactive); in assay [4] it was 9.12 µM (inactive); in [5] it was 2.36 µM (inactive). In addition, the GI50 in assay [6] was 15.8 µM (inactive); in assay [7], 10.1 µM (inactive); in [8], 2.99 µM (inactive); in [9], 12.6 µM (inactive); in assay [10], 6.3 µM (inactive); in assay [11], 5.78 µM (inactive). The GI50 in assay [12] was 6.81 µM (inactive); in [13] it was 2.48 µM (inactive); in assay [14] it was 5.78 µM (inactive); in assay [15], 2.75 µM; in [20], 2.38 µM (inactive); in assay [16] it was 17.5 µM (inactive).

On to `CCCCC/C=C\C=C1\C(=O)C=C[C@@H]1C/C=C\CCCC(=O)O`, for which the GI50 was 2.27 µM (inactive) in assay [17]; 3.21 µM (inactive) in assay [1]; 6.31 µM (inactive) in [2]; 1.24 µM (inactive) in assay [3]; 8.43 µM (inactive) in assay [18]; 2.89 µM (inactive) in assay [4]. Moreover, the GI50 in assay [5] is 7.16 µM (inactive); in assay [6], 7.29 µM (inactive); in assay [7] it was 11.7 µM (inactive); in assay [8], 3.37 µM (inactive); in assay [9], 2.9 µM (inactive); in assay [10], 2.47 µM (inactive). For the same compound, the GI50 is 2.42 µM (inactive) in assay [11]; 1.53 µM (inactive) in assay [12]; 4.37 µM (inactive) in assay [13]; 3.87 µM (inactive) in [14]; 5.24 µM in assay [15]; 3.78 µM (inactive) in assay [20]. Further, in assay [16], the GI50 was 1.9 µM (inactive).

On to `Sc1nn2c(Cc3ccccc3)nnc2s1`, for which the GI50 in assay [17], in assay [1], in [2], in assay [3], in [18] and in assay [4] was > 100 µM (inactive) throughout. In addition, the GI50 in assay [19], in [5], in [6], in assay [8], in assay [9] and in [10] was > 100 µM (inactive) each time. Further, the GI50 in assay [11] is > 100 µM (inactive); in assay [12], > 100 µM (inactive); in assay [13], > 100 µM (inactive); in [14] it was > 100 µM (inactive); in assay [15], more than 100 µM; in [20], > 100 µM (inactive). For the same compound, the GI50 in assay [16] was > 100 µM (inactive).

Regarding `O=c1c(O)c(-c2ccc(O)cc2O)oc2cc(O)cc(O)c12` [MORIN], the GI50 in assay [17] was > 100 µM (inactive); in assay [1], > 100 µM (inactive); in assay [2] it was > 100 µM (inactive); in assay [3], > 100 µM (inactive); in [18], 33.4 µM (inactive); in assay [4], > 100 µM (inactive). Moreover, the GI50 in [19] was > 10 µM (inactive); in [5], > 100 µM (inactive); in [6], > 100 µM (inactive); in [8], > 100 µM (inactive); in [9] it was > 100 µM (inactive); in assay [10], > 100 µM (inactive). Further, the GI50 is > 100 µM (inactive) in assay [11]; > 100 µM (inactive) in assay [12]; > 100 µM (inactive) in assay [13]; > 100 µM (inactive) in assay [14]; more than 100 µM in assay [15]; > 100 µM (inactive) in assay [20]. Moreover, in assay [16], the GI50 is 30.3 µM (inactive).
